We go through five compounds from patent US12582648B2 (BIOPROJET Pharma, priority 2020, dated 2026).

SMILES strings stand for the structures. A value given as a limit tells only on which side of the number the result lay.

In data set [1] the test system is monosynaptic spinal cord reflex. Put plainly: Monosynaptic response in the isolated spinal cord of rat pups (rat model of RLS). To be noted: for inhibition of the monosynaptic reflex: reference agonists applied to isolated rat spinal cord. On the procedure:
RLS is believed to reflect an abnormal sensitivity of spinal stretch reflexes. These reflexes are modulated in an inhibitory fashion by dopamine released in the dorsal horn from a descending dopaminergic projection arising from A11 dopamine cells in the hypothalamus.
Electrophysiological responses i.e. motor action potentials recorded on the ventral root of isolated spinal cord from rat pups following stimulation of the dorsal root were analyzed.

The target of a further data set is human D2 receptor (Homo sapiens, UniProt P14416). Put plainly: Affinity at the human D2 receptor. The format is binding.
Sequence of human D2 receptor (P14416 whole entry): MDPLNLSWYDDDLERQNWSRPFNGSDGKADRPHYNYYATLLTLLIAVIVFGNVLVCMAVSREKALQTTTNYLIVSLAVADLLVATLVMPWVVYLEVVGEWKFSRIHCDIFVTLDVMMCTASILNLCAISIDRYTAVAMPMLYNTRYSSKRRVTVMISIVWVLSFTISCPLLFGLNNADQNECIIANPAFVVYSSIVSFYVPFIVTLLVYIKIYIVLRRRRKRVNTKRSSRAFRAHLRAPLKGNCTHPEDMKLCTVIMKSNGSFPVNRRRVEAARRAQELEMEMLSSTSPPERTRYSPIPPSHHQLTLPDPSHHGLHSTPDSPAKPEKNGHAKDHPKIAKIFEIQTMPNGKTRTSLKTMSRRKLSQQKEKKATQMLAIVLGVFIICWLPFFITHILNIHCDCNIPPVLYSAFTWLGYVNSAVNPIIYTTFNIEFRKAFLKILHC
Data set [2] has as its target human dopamine D3 receptor (Homo sapiens, UniProt P35462). Put plainly: Mitogenesis assay of D3-receptor activation ([3H]-thymidine incorporation, CHO cells). The format is cell-based. To be noted: for agonist behaviour (partial / full): human D3 receptor. Here is the method: Mitogenesis Assay of D3-Receptor Activation
Chinese hamster ovary (CHO) cells stably expressing the human dopamine D3 receptor were plated overnight in 96-well plates. Cells were then washed with serum-free medium, and incubated 20 h with various concentrations of ligands. Tritiated thymidine was added for a 4 hour-pulse. Then, the cells were detached with trypsin/EDTA, transferred in GF/C multiscreen microplates, rinsed with ice-cold PBS and ethanol and dried. [^3H]-Thymidine incorporation was measured by liquid scintillation in a MicroBeta counter.
Results are expressed as percentage of the maximal [^3H]-thymidine incorporation yielded with the full agonist quinelorane.
(Uptake of a labelled nucleoside into DNA is a usual measure of proliferation.)

In another data set the target is T1, human D3 receptor (Homo sapiens, UniProt P35462).
T1 construct: expressed in transfected cells
T1 sequence (P35462 whole entry): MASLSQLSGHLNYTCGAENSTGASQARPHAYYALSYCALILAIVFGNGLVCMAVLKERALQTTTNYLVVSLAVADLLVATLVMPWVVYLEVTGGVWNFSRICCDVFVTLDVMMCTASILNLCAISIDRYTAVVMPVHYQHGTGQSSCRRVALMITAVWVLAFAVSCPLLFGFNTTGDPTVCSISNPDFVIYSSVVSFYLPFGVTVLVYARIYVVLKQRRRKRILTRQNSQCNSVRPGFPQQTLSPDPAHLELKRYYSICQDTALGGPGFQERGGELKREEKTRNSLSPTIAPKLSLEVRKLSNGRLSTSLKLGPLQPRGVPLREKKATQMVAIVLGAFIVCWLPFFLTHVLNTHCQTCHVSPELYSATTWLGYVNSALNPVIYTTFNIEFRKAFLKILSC
Put plainly: GTPγ35S binding assay at D3 dopamine receptor (CHO cell membranes). The format is biochemical. To be noted: GTPγ[35S] assay, dopamine as full agonist reference. Background: Binding of GTPγS marks nucleotide exchange on a G protein.

The target in data set [3] is T2, human dopamine D2 short isoform (Homo sapiens, UniProt P14416).
T2 construct: expressed in transfected cells; host or cells: HEK293 cells
T2 sequence (P14416 1-414 isoform P14416-2): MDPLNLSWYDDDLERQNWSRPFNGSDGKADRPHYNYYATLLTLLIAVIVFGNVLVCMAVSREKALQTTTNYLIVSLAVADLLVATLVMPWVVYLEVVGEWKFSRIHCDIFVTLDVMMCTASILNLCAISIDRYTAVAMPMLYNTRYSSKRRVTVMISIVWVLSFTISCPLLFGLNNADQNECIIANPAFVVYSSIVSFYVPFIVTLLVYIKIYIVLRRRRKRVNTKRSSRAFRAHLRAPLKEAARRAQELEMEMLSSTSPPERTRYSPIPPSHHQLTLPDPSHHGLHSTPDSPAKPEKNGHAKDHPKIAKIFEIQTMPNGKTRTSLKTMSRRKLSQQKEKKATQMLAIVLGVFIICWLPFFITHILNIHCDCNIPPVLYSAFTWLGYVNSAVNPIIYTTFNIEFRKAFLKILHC
Put plainly: Calcium fluxes assay of D2-receptor activation/inhibition (HEK293 cells). The format is cell-based. To be noted: calcium flux; for agonist behaviour at D2 receptor: BP1.4979 at concentrations up to 1,000 nM; for EC50: HEK293 cells, human D2 short isoform. On the procedure: Calcium Fluxes Assay of D2-Receptor Activation/Inhibition
HEK293 cells expressing the human dopamine D2 short isoform were used to evaluate the potential agonist property of test compounds. Cells were loaded with Fluo-4-AM solution supplemented with sulfinpyrazone then plated in a 96-well plate and introduced in a FLEX station for fluorescence measurement following calcium transients.
Responses were calculated as the maximum minus the minimum fluorescence counts (Fmax−Fmin).
For orientation: Calcium flux is commonly read through the fluorescence of an indicator in the cells.

Another data set deals with RLS patients. Put plainly: Double-blind placebo-controlled clinical trial in restless legs syndrome. The format is in vivo, human. The conditions noted are these: 15 mg twice a day for two weeks. On the procedure:
Clinical Studies: Efficacy of BP1.4979 in Restless Legs Syndrome (Randomized, Double Blind Parallel Groups Sequential, Placebo Controlled, Clinical Trial)
The double-blind trial was conducted on 29 patients.

For the next data set, the system named is healthy smokers. Put plainly: Weight gain during smoking cessation, double blind clinical trial. To be noted: for weight increase: after twelve weeks; for weight increase compared to the weight before treatment: twelve further weeks after the end of treatment. The format is in vivo, human.
Data set [4] deals with 160 other receptors, channels or enzymes. Put plainly: Activity at 160 other receptors, channels or enzymes.

Sequence of human dopamine D3 receptor (P35462 whole entry): as the sequence (P35462 whole entry) above
Protocol for human D3 receptor: Thawed membranes from CHO cells stably expressing human D3 receptor were diluted at a final concentration of 5 μg/180 μL/well in a binding buffer containing HEPES 50 mM, MgCl2 3 mM, NaCl 140 mM, GDP 4 μM, pH=7.4 and distributed in 96 well polystyrene microplate. […] After transfer in a Millipore GF/C HTS® microplate, the filtration of the reactional mix followed by a three time 250 μl wash put an end to the reaction. The filter-bound radioactivity was measured in a liquid scintillation counter Microbeta with 70 μl of scintillation fluid.

Take `CCCN(CCC)C1CCc2ccc(O)cc2C1` (stereo not shown) [7-OHDPAT, reference compound]: the “inhibition of the monosynaptic reflex” value in data set [1] is “total or nearly total inhibition”.
For the compound `COCCC(=O)N[C@H]1CC[C@H](CCN2CCN(c3cccc(C#N)c3)CC2)CC1` [BP1.4979, N-(4-{2-[4-(3-Cyanophenyl)piperazin-1-yl]ethyl}cyclohexyl)-3-methoxypropanamide], the “behaviour at the human D2 receptor” value at human D2 receptor is “pure antagonist”. Also, the Emax in data set [2] (CHO, read-out: intrinsic activity) worked out at 30%. Also, the 50% effective concentration (EC50) (commonly the concentration at which the effect is half-maximal) in data set [2] (mitogenesis, CHO cells expressing human D3 receptor) is 0.7 nM. Moreover, the “agonist behaviour (partial / full)” value in data set [2] (mitogenesis) was “partial agonist”. At human D3 receptor, this compound gave a partial activity of less than 5%. For the same compound, the “blockade of the effect of dopamine or agonists” value in data set [3] (antagonist mode) is listed as “block completely”. Further, the “agonist behaviour at D2 receptor” value in data set [3] was “failed to activate the receptor”. In addition, the “inhibition of the synaptic transmission” value in data set [1] (30 nM, stimulation 40 V, 50 μs of the dorsal root) is “inhibited fully”. The “amplitude of the post-synaptic response on the ventral root” value in data set [1] (another series of experiments, supraliminar stimulation of the dorsal root) was “dose dependently inhibited”. In addition, the “effect on post-synaptic response in the presence of the dopamine D3 antagonist BP1.4096” value in data set [1] (in the presence of BP1.4096) is “prevented”. Also, the “nausea and vomiting side-effects” value in the data set with RLS patients is reported as “no patient reported any symptom related to nausea nor did had vomiting episodes”. The weight increase came out at 0.9 kg in the data set on healthy smokers (3 mg once a day), 0.5 kg with healthy smokers (10 mg once a day) and 0.0 kg with healthy smokers (15 mg once a day). Besides, the results for the “weight increase compared to the weight before treatment” value with healthy smokers (3 mg once a day), with healthy smokers (10 mg once a day) and in the data set with healthy smokers (15 mg once a day) were 2.0 kg, 1.4 kg and 0.2 kg, respectively. Besides, in data set [4], the “activity at 160 other receptors, channels or enzymes” value was “inactive”.
`NCCc1ccc(O)c(O)c1` [Dopamine, dopamine, reference compound]: the “inhibition of the monosynaptic reflex” value in data set [1] is “total or nearly total inhibition”.
`CCCN(CCC)CCc1cccc2c1CC(=O)N2` [Ropinirole]: the “agonist behaviour (partial / full)” value in data set [2] (mitogenesis) is recorded as “full agonists”. In addition, in data set [3], the EC50 was 20 nM and the “agonist behaviour at D2 receptor” value is “full agonists”.
Turning to `CCCN(CCc1cccs1)[C@H]1CCc2c(O)cccc2C1` [Rotigotine], in data set [3], the concentration giving a half-maximal response (EC50) came to 0.3 nM and the “agonist behaviour at D2 receptor” value is reported as “full agonists”.
